From patent US20160220542A1, “SYNERGISTIC ACTIVITY OF MODULATORS OF THE NO METABOLISM AND OF NADPH OXIDASE IN THE SENSITISATION OF TUMOR CELLS” (Universitaetsklinikum Freiburg, priority 2010, published 2016)

Columns and labels:
[1] = tested on: extracellular superoxide anion production of MKN-45 cells; test: extracellular superoxide anion production of MKN-45 cells (Cu SOD bell curve shift); type: cell-based; settings: for stimulation of the NADPH oxidase: higher concentration range of the substances
MKN-45 cells = test: apoptosis induction in MKN-45 tumour cells, single substances and combinations; type: cell-based
Protocol: 12 500 MKN-45 cells in 100 μl medium were prepared with the stated concentrations of arginine in combination with 0.2 or 20 μM resveratrol. Control preparations received arginine at between 0 and 5 mM, but remained free of resveratrol. After 4.5 hours the percentages of apoptotic cells were determined (duplicate preparations).
In addition, 25 μM caspase-8 inhibitor were added or not added to the stated combinations of arginine and resveratrol. Assessment after 4.5 hours.
12 500 MKN-45 cells in 100 μl had 10 μg/ml Taxol or 0.013 μg/ml Taxol in combination or not with the stated concentrations of resveratrol added. […] After 4.5 hours in duplicate preparations the percentages of apoptotic cells were determined.
12 500 MKN-45 cells in 100 μl medium received either no addition of substances, 25 ng/ml epothilone B, 0.75 ng/ml epothilone B, 25 μg/ml resveratrol or the combination of 0.75 ng/ml epothilone B with 25 μg/ml resveratrol. After 3 hours the percentages of apoptotic cells were determined in duplicate preparations.
12 500 MKN 45 cells in 100 μl medium received none of the stated additives. After 3 hours an assessment was made of the duplicate preparations.

NO dioxygenase (NOD) = test: inhibition of NO dioxygenase (DEA NONOate-dependent apoptosis in MKN-45 cells); type: cell-based; settings: for available NO concentration through inhibition of the NOD: broad concentration range; for effect on available NO concentration (NOD inhibition): as Example 10, 3 hours
Protocol: This test is based on the fact that NOD also effectively converts exogenously added NO into nitrate and thus in suitable cell systems (such as for example the tumour cell line MKN-45) can prevent apoptosis induction by NO/peroxynitrite.
This rules out a test substance having an influence over the reaction as a whole, through modulation of the catalase activity. The hydrogen peroxide released following the catalase inhibition is fully decomposed by 20-25 μM of the catalase mimetic EUK-134 (similar to the abovementioned EUK-8, but with a lower peroxidise activity). In this way both the HOCl pathway and the consumption of NO by hydrogen peroxide are prevented. For the modulation of the available NO concentration with the known mechanisms now only the NOD remains. If this is inhibited then the addition of exogenous NO leads to an increased apoptosis induction.
12 500 MKN-45 cells in 100 μl Medium had 200 mM 3-AT, 2.4 mM NAME, 25 μM EUK-134 and the stated concentrations of epothilone B (“EPO”) added. […] Then the stated concentrations of the NO donor DEANONOate were added and the preparations were incubated for a further 2 hours at 37° C. before the percentages of apoptotic cells were determined.
The experiment was carried out in the same way as described in FIG. 10, but with the difference that the stated concentrations of DADS (FIG. 11A) or Taxol (FIG. 11B) were used and the determination of the apoptotic cells took place after 3 hours.

[2] = tested on: transformed 208Fsrc3 cells; test: apoptosis induction mediated by added myeloperoxidase (MPO); type: cell-based, rat; settings: 200 mU/ml MPO; 100 U/ml catalase, 50 mM taurine, 10 mM mannitol; 5 hours
Protocol: Instead of the autocrine apoptosis induction illustrated in Example 1, in the experiment illustrated in Example 2 the HOCl signalling pathway is accelerated by addition of exogenous MPO (FIG. 2A) or the NO/peroxynitrite pathway is induced by addition of the rapidly decomposing NO donor DEA NONOate.
12 500 transformed 208Fsrc3 cells per preparation (96 hole plate, 100 μl medium) were sown. Under A these also received 200 mU/ml MPO, and under B additionally 1.5 mM DEA NONOate. Control preparations remained free of MPO or DEA NONOate. In Part A additionally 100 U/ml catalase (KAT), 50 mM taurine (TAU), and 10 mM mannitol (MANN) were used.
In FIG. 2B the addition took place of 25 μM of the catalytically effective peroxynitrite destroyer FeTPPS. The duplicate preparations under A were assessed after 5 hours, and those under B after just 3 hours. […] The inhibitors confirm the involvement of hydrogen peroxide (inhibition by catalase), HOCl (inhibition by taurine), and hydroxyl radicals (inhibition by mannitol). Again a bell curve was obtained, the right part of which is dependent upon the availability of HOCl and the effect of hydroxyl radicals.

[3] = tested on: transformed rat fibroblast line 208Fsrc3; test: autocrine, ROS mediated apoptosis induction in transformed cells; type: cell-based; settings: 22 hours; for effect on autocrine apoptosis: 50 mM taurine, 150 μM ABH or 10 mM mannitol; for effect of higher SOD concentrations on apoptosis: concentrations above maximum inhibition
Protocol: 12 500 cells of the transformed rat fibroblast line 208Fsrc3 per 100 μl complete medium were sown in 96 hole plates. Following growth 20 ng/ml TGF-beta-1 were added to all preparations. To the preparations the stated concentrations of Cu SOD (from bovine erythroctes) or Mn SOD (from E. coli) were added. Some of the preparations received 50 mM of the HOCl receptor taurine (TAU), 150 μM of the peroxidase inhibitor 4-aminobenzoylhydrazide (ABH) or 10 mM of the hydroxyl radical scavenger mannitol. After 22 hours the percentages of apoptotic cells were determined on the basis of the conventional apoptosis characteristics of nuclear condensation, nuclear fragmentation or membrane blebbing in each case in duplicate preparations.

[4] = tested on: human lymphoma line Gumbus; test: catalase deactivation of tumour cells (hydrogen peroxide induced apoptosis); type: cell-based; settings: 1.5 hours
Protocol: 25 000 cells of the human lymphoma line Gumbus/100 μl medium had the stated concentrations of hydrogen peroxide added without 3-AT or in the presence of 50 mM or 100 mM of the catalase inhibitor 3-AT. After 1.5 hours in duplicate preparations the apoptosis induction was determined.
FIG. 14B: Gumbus cells were pre-incubated without Taxol (control) or with 10 μg/ml Taxol for 30 minutes at 37° C. Parallel preparations were either free of further substances or contained 2 mM histidine (singlet oxygen-receptor), 25 μM FeTPPS (catalytically-acting peroxynitrite destroyer) or 25 U/ml catalase (CAT). Following pre-incubation the cells were separated by centrifugation, absorbed in fresh medium and the stated concentrations of hydrogen peroxide added. After 1.5 hours the assessment was performed in the duplicate preparations.

208Fsrc3 cells = test: EUK-8-mediated apoptosis induction, Cu SOD bell curve; type: cell-based, rat
Protocol: 12 500 208Fsrc3 cells in 100 μl (96 hole plate) had increasing concentrations of Cu SOD added in the presence of 120 μM EUK-8. After 5 hours the percentage of apoptotic cells was determined in duplicate preparations.
The indicated cell counts (208Fsrc3) in 100 μl medium had increasing concentrations of Cu SOD added in the presence of 120 μM EUK-8. After 1.5 hours in duplicate preparations the percentages of apoptotic cells were determined. There is a direct dependency between the SOD concentration at the vertex and the number of cells per preparation. Since this in turn determines the total concentration of available superoxide anions, there is a correlation between SOD concentration at the vertex and the superoxide anions concentration achieved.

## C/C(=C\c1csc(C)n1)[C@@H]1C[C@@H]2O[C@]2(C)CCC[C@H](C)[C@H](O)[C@@H](C)C(=O)C(C)(C)[C@@H](O)CC(=O)O1 [epothilone B]
[1]
  effect on superoxide anion production: did not demonstrate any effect
  stimulation of the NADPH oxidase: simultaneous stimulation of the NADPH oxidase
[1]; highest concentration of epothilone B, 150 mM 3-AT, 8 hours
  increase in superoxide anion production: fourfold
MKN-45 cells; 0.75 ng/ml epothilone B alone, 3 hours
  apoptosis induction: neither the low epothilone B concentration nor resveratrol on its own was able to induce apoptosis
NO dioxygenase (NOD); all concentrations used, 200 mM 3-AT, 2.4 mM NAME, 25 μM EUK-134, 2 hours
  effect on DEA NONOate-dependent apoptosis (NOD inhibition): led to an increase in the DEA-NONOATE-dependent apoptosis
NO dioxygenase (NOD)
  available NO concentration through inhibition of the NOD: increase in the available NO concentration

## NCCS(=O)(=O)O [taurine]
[2]
  effect on MPO-mediated apoptosis (HOCl pathway): inhibition
[3]
  effect on autocrine apoptosis: completely inhibited

## Nc1nc[nH]n1 [3-AT, 3-aminotriazole]
[4]; 50 mM or 100 mM 3-AT
  effect on catalase protection against exogenous hydrogen peroxide: can be reversed

## Oc1cc(O)c2cc(O)c(-c3ccc(O)c(O)c3)[o+]c2c1.[Cl-] [cyanidin chloride]
MKN-45 cells; high cyanidin chloride concentration, 3 hours
  dependence of the effect on caspase-8: dependent upon caspase-8

## catalase
[2]
  effect on MPO-mediated apoptosis (HOCl pathway): inhibition

## Photofrin
[1]; 1 μg/ml Photofrin exposed to light, 100 mM 3-AT, 5 hours
  stimulation of the NADPH oxidase by singlet oxygen: significant stimulation of the NADPH oxidase

## C=CCN=C=S [allyl isothiocyanate]
[1]
  stimulation of the NADPH oxidase: simultaneous stimulation of the NADPH oxidase
NO dioxygenase (NOD)
  available NO concentration through inhibition of the NOD: increase in the available NO concentration

## C=CCSSCC=C [DADS, diallyl disulfide]
NO dioxygenase (NOD)
  effect on available NO concentration (NOD inhibition): led to an increase in the available NO concentration

## NNC(=O)c1ccc(N)cc1 [ABH, 4-aminobenzoylhydrazide]
[3]
  effect on autocrine apoptosis: completely inhibited

## Oc1ccc(C=Cc2cc(O)cc(O)c2)cc1 [resveratrol]
[1]; 4 or 20 μg/ml resveratrol, 120 μM EUK-8, 4 hours
  increase in superoxide anion production: 8-16 times
MKN-45 cells; 25 μg/ml resveratrol alone, 3 hours
  apoptosis induction: neither the low epothilone B concentration nor resveratrol on its own was able to induce apoptosis
MKN-45 cells; 0.2 or 20 μM resveratrol, 4.5 hours
  apoptosis induction by resveratrol alone: little more than background apoptosis
MKN-45 cells; each stated concentration of resveratrol alone, 4.5 hours
  apoptosis induction: induced no apoptosis
NO dioxygenase (NOD); data not shown
  inhibitory capability of the NOD: no indications of an inhibitory capability of the NOD

## CC(=O)O[C@H]1C(=O)[C@@]2(C)[C@H]([C@H](OC(=O)c3ccccc3)[C@]3(O)C[C@H](OC(=O)[C@H](O)[C@@H](NC(=O)c4ccccc4)c4ccccc4)C(C)=C1C3(C)C)[C@]1(OC(C)=O)CO[C@@H]1C[C@@H]2O [Taxol]
[1]; data not shown
  stimulation of the NADPH oxidase compared with epothilone B: behaves in the same way
[1]
  stimulation of the NADPH oxidase: simultaneous stimulation of the NADPH oxidase
MKN-45 cells; 0.013 μg/ml Taxol alone, 4.5 hours
  apoptosis induction: induced no apoptosis
MKN-45 cells; 10 μg/ml Taxol alone, 4.5 hours
  apoptosis induction: clear apoptosis induction
NO dioxygenase (NOD)
  effect on available NO concentration (NOD inhibition): led to an increase in the available NO concentration
  available NO concentration through inhibition of the NOD: increase in the available NO concentration
[4]; pre-incubation with 10 μg/ml Taxol for 30 minutes, washed
  effect on catalase protection against exogenous hydrogen peroxide: has the same effect as 3-AT

## N=C(N)NCCC[C@H](N)C(=O)O [arginine]
MKN-45 cells
  apoptosis induction by arginine alone: concentration-dependent apoptosis induction
  dependence of apoptosis on caspase-8 / FAS: strictly dependent upon the involvement of a caspase-8-mediated step

## OC[C@@H](O)[C@@H](O)[C@H](O)[C@H](O)CO [mannitol]
[2]
  effect on MPO-mediated apoptosis (HOCl pathway): inhibition
[3]
  effect on autocrine apoptosis: completely inhibited

## Cu SOD: Cu-containing superoxide dismutase from bovine erythroctes
[3]
  effect of higher SOD concentrations on apoptosis: renewed increase in the apoptosis
208Fsrc3 cells; 120 μM EUK-8, 12 500 cells, 5 hours
  effect of Cu SOD on EUK-8-mediated apoptosis: leads to a bell curve
208Fsrc3 cells; 6 250 cells, 120 μM EUK-8, 1.5 hours
  SOD concentration at the vertex (maximum inhibition): 0.57 U/ml

B1: Mn SOD: Mn-containing superoxide dismutase from E. coli (protein, UniProt P00448 2-206, looked up)
Superoxide dismutase [Mn]: SYTLPSLPYAYDALEPHFDKQTMEIHHTKHHQTYVNNANAALESLPEFANLPVEELITKLDQLPADKKTVLRNNAGGHANHSLFWKGLKKGTTLQGDLKAAIERDFGSVDNFKAEFEKAAASRFGSGWAWLVLKGDKLAVVSTANQDSPLMGEAISGASGFPIMGLDVWEHAYYLKFQNRRPDYIKEFWNVVNWDEAAARFAAKK
[3]
  effect of higher SOD concentrations on apoptosis: once the maximum inhibition has been reached this is maintained

B2: MPO: exogenous myeloperoxidase (protein, UniProt P05164 165-745, looked up)
Myeloperoxidase: VTCPEQDKYRTITGMCNNRRSPTLGASNRAFVRWLPAEYEDGFSLPYGWTPGVKRNGFPVALARAVSNEIVRFPTDQLTPDQERSLMFMQWGQLLDHDLDFTPEPAARASFVTGVNCETSCVQQPPCFPLKIPPNDPRIKNQADCIPFFRSCPACPGSNITIRNQINALTSFVDASMVYGSEEPLARNLRNMSNQLGLLAVNQRFQDNGRALLPFDNLHDDPCLLTNRSARIPCFLAGDTRSSEMPELTSMHTLLLREHNRLATELKSLNPRWDGERLYQEARKIVGAMVQIITYRDYLPLVLGPTAMRKYLPTYRSYNDSVDPRIANVFTNAFRYGHTLIQPFMFRLDNRYQPMEPNPRVPLSRVFFASWRVVLEGGIDPILRGLMATPAKLNRQNQIAVDEIRERLFEQVMRIGLDLPALNMQRSRDHGLPGYNAWRRFCGLPQPETVGQLGTVLRNLKLARKLMEQYGTPNNIDIWMGGVSEPLKRKGRVGPLLACIIGTQFRKLRDGDRFWWENEGVFSMQQRQALAQISLPRIICDNTGITTVSKNNIFMSNSYPRDFVNCSTLPALNLASWREAS
[2]
  effect on MPO-mediated apoptosis (HOCl pathway): accelerates the HOCl pathway
